Experiment [1] concerns platelets. Nature of the experiment: Platelets aggregation inhibitory activity (method of Born et al.), ADP-induced, human PRP (Pharmacological Test I). The note with it: 7.5 μM ADP, 37° C., read-out: IC50 ADP (50% platelets aggregation inhibition). The format is cell-based, man. Here is the method:
(§1) The platelets aggregation inhibitory activity of each test compound was measured by the method of Born et al. [J. Physiol., London, 162, 67 (1962)], using Platelets Aggregation Tracer manufactured by Nikoh Bioscience Co., Ltd.
(§2) 9 volumes of a blood collected from person was mixed with 1 volume of a 3.8% aqueous sodium citrate solution. Part of the mixture was subjected to centrifugation at 1,100 rpm for 10 minutes to obtain a platelet rich plasma (PRP). The remainder of the mixture was also subjected to centrifugation at 3,000 rpm for 10 minutes to obtain a platelet poor plasma (PPP).
(§3) The number of platelets in the PRP was measured using Coulter Counter manufactured by Coulter Electronics Inc. Then, the PRP was diluted with the PPP so that the number of platelets in the dilution became 300,000, whereby a PRP solution was prepared.
(§4) 200 μl of this PRP solution and 2 ml of a solution containing a test compound at a given concentration were placed in an aggregation measurement cell and heated at 37° C. for 1 minute. Thereto was added 20 μl of adenosine diphosphate (ADP manufactured by Sigma Co.) or a collagen suspension (Collagen Reagent manufactured by Horm, Hormon-Chemie, Gmbh) to induce aggregation of platelets. The resulting mixture in the cell was measured for change of transmittance, after which a platelets aggregation curve was prepared. Incidentaly, the concentration of ADP or collagen was selected so that the final Concentration became 7.5 μM or 20 μg/ml.
(§5) Using the platelets aggregation curve, there was calculated a maximum aggregation rate (MAR) of platelets using the followoing formula: […]
(§6) wherein a represents a transmittance of the PRP obtained in the same manner; c represents a transmittance of the PPP obtained in the same manner; and b represents a transmittance at the maximum change, of the PRP solution containng the test compound and the aggregation inducer.
(§7) A MAR was also calculated as above, for the control containing no test compound.
(§8) Using the above two MARs, there were calculated platelets aggregation inhibitions (%) of each test compound at various concentrations using the following formula.
(§9) Inhibition=[1-(MAR of PRP solution containing test compound)/(MAR of PRP
(§10) solution containing no test compound)]×100
(§11) Using the above obtained platelets aggregation inhibitions (%) of each test compound at various concentrations, there was calculated a concentration (IC50) of each test compound for 50% platelets aggregation inhibition.

The test system of experiment [2] is platelets. In words: Platelets aggregation inhibitory activity (method of Born et al.), collagen-induced, human PRP (Pharmacological Test I). The format is cell-based, man. The settings on record: Homo sapiens, Platelet, 20 μg/ml collagen, 37° C., read-out: IC50 Collagen (50% platelets aggregation inhibition). As for the experimental part:
as §1, §2, §3, §4, §5, §6, §7, §8, §9, §10, §11

As to `O=C(CN1CCC(O)CC1)N(CCCCOc1ccc2[nH]c(=O)ccc2c1)CC1CCCCCCC1` [Example 21], the IC50 (as a rule, the concentration at which inhibition is half-maximal) amounted to 4.2 µM in experiment [1] (Homo sapiens, Platelet) and 3.1 µM in experiment [2].

As for `O=c1ccc2cc(OCCCCN(CCN3CCC(O)CC3)CC3CCCCO3)ccc2[nH]1` (stereo not shown) [Example 24], the IC50 in experiment [1] (Homo sapiens, Platelet) stood at 14 µM; in experiment [2], 14 µM.

For the compound `O=c1ccc2cc(OCCCCN(CCN3CCC(O)CC3)C3CCCCC3)ccc2[nH]1` [Example 26], the IC50 stood at 15 µM in experiment [1] (Homo sapiens, Platelet) and 14 µM in experiment [2].

As for `O=c1ccc2cc(OCCCCCN(CCN3CCC(O)CC3)Cc3ccccc3)ccc2[nH]1` [Example 29], the IC50 was 12 µM in experiment [1] (Homo sapiens, Platelet) and 6.3 µM in experiment [2]. On to `Cc1ccc(CN(CCCCCOc2ccc3[nH]c(=O)ccc3c2)CCN2CCC(O)CC2)cc1` [Example 32], for which the IC50 came to 4.8 µM in experiment [1] (Homo sapiens, Platelet) and 6.1 µM in experiment [2]. For `N#Cc1ccc(CN(CCCCCOc2ccc3[nH]c(=O)ccc3c2)CCN2CCC(O)CC2)cc1` [Example 33], the IC50 stood at 5.6 µM in experiment [1] (Homo sapiens, Platelet) and 9.1 µM in experiment [2].

On to `COc1ccc(CN(CCCCCOc2ccc3[nH]c(=O)ccc3c2)CCN2CCC(O)CC2)cc1OC` [Example 35], for which the IC50 is 11 µM in experiment [1] (Homo sapiens, Platelet) and 11 µM in experiment [2]. For `O=c1ccc2cc(OCCCCCN(CCN3CCC(O)CC3)Cc3ccc(Cl)c(Cl)c3)ccc2[nH]1` [Example 36], the IC50 in experiment [1] (Homo sapiens, Platelet) is 11 µM; in experiment [2], 20 µM. For `O=c1ccc2cc(OCCCCCN(CCN3CCC(O)CC3)Cc3cccs3)ccc2[nH]1` [Example 40], in that order: 13 µM and 10 µM. Consider `O=C(C1CCCCCCC1)N(CCCCOc1ccc2[nH]c(=O)ccc2c1)CCN1CCC(O)CC1` [Example 41], for which the IC50 in experiment [1] (Homo sapiens, Platelet) was found to be 8.7 µM; in experiment [2] it was 11 µM.

With `O=C(c1ccccc1)N(CCCCOc1ccc2[nH]c(=O)ccc2c1)CCN1CCC(O)CC1` [Example 42], the IC50 in experiment [1] (Homo sapiens, Platelet) came out at 20 µM; in experiment [2] it was 13 µM. For `O=c1ccc2cc(OCCCCN(CCN3CCOCC3)CC3CCCCCCC3)ccc2[nH]1` [Example 45], the IC50 worked out at 22 µM in experiment [1] (Homo sapiens, Platelet) and 25 µM in experiment [2]. For the compound `CN(C)C1CCN(CCN(CCCCOc2ccc3[nH]c(=O)ccc3c2)CC2CCCCCCC2)CC1` [Example 46], the IC50 is 20 µM in experiment [1] (Homo sapiens, Platelet) and 20 µM in experiment [2].

Consider `O=c1ccc2cc(OCCCCN(CCN3CCC4(CC3)OCCO4)CC3CCCCCCC3)ccc2[nH]1` [Example 47], for which the IC50 in experiment [1] (Homo sapiens, Platelet) was found to be 25 µM; in experiment [2], 29 µM.

For the compound `O=c1ccc2cc(OCCCCN(CCN3CCC[C@H]3CO)CC3CCCCCCC3)ccc2[nH]1` [Example 49], the IC50 in experiment [1] (Homo sapiens, Platelet) was 6.9 µM; in experiment [2] it was 22 µM. Consider `O=C1CC[C@@H](CO)N1CCN(CCCCCOc1ccc2[nH]c(=O)ccc2c1)Cc1ccccc1` [Example 55], for which the IC50 in experiment [1] (Homo sapiens, Platelet) stood at 3.7 µM; in experiment [2], 2.6 µM.

Turning to `O=c1ccc2cc(OCCCCCN(CCN3CCCS3(=O)=O)Cc3ccccc3)ccc2[nH]1` [Example 56], the IC50 in experiment [1] (Homo sapiens, Platelet) turned out to be 14 µM; in experiment [2], 7.7 µM. In the same order, the values of `O=c1ccc2cc(OCCCCCN(CCN3CCN(CCO)CC3)Cc3ccccc3)ccc2[nH]1` [Example 57] are 18 µM and 17 µM. As to `O=c1ccc2cc(OCCCCCN(CCN(CCO)CCO)Cc3ccccc3)ccc2[nH]1` [Example 58], the IC50 in experiment [1] (Homo sapiens, Platelet) amounted to 3.8 µM; in experiment [2] it was 4.8 µM. On to `O=c1ccc2cc(OCCCCN(CCNCCO)CC3CCCCCCC3)ccc2[nH]1` [Example 60], for which the half-maximal inhibitory concentration (IC50) in experiment [1] (Homo sapiens, Platelet) was 15 µM; in experiment [2], 5.3 µM.

Regarding `CCN(CC)C(=O)CN(CCCCOc1ccc2[nH]c(=O)ccc2c1)CC1CCCCCCC1` [Example 65], the IC50 in experiment [1] (Homo sapiens, Platelet) was 11 µM; in experiment [2], 14 µM. On to `O=c1ccc2cc(OCCCCCN(CCO)Cc3ccccc3)ccc2[nH]1` [Example 67], for which the IC50 amounted to 4.5 µM in experiment [1] (Homo sapiens, Platelet) and 2.9 µM in experiment [2]. For `O=c1ccc2cc(OCCCCCN(CCn3ccnc3)Cc3ccccc3)ccc2[nH]1` [Example 69], in that order: 15 µM and 9.5 µM.

Consider `CCN1C[C@H](O)C[C@H]1CN(CCCCOc1ccc2[nH]c(=O)ccc2c1)CC1CCCCCCC1` [Example 71], for which the IC50 in experiment [1] (Homo sapiens, Platelet) was determined as 18 µM; in experiment [2], 7.4 µM.

With `O=C([C@@H]1C[C@@H](O)CN1CCCCOc1ccc2[nH]c(=O)ccc2c1)N1CCCCC1` [Example 74], the IC50 in experiment [1] (Homo sapiens, Platelet) turned out to be 17 µM; in experiment [2], 20 µM. As to `CN(C1CCCCC1)S(=O)(=O)CCCCOc1ccc2[nH]c(=O)ccc2c1` [Example 77], the IC50 in experiment [1] (Homo sapiens, Platelet) was found to be 2.1 µM; in experiment [2] it was 4.9 µM. In the case of `O=c1ccc2cc(OCCCS(=O)(=O)N(CCN3CCC(O)CC3)CC3CCCCCCC3)ccc2[nH]1` [Example 78], the IC50 in experiment [1] (Homo sapiens, Platelet) was 1.4 µM; in experiment [2] it was 0.38 µM. For `O=c1ccc2cc(OCCCCCS(=O)(=O)N(CCN3CCC(O)CC3)CC3CCCCCCC3)ccc2[nH]1` [Example 80], in that order: 13 µM and 15 µM.

With `O=C(CN(CC1CCCCCCC1)S(=O)(=O)CCCOc1ccc2[nH]c(=O)ccc2c1)N1CCC(O)CC1` [Example 81], the IC50 is 6.1 µM in experiment [1] (Homo sapiens, Platelet) and 11 µM in experiment [2]. With `O=c1ccc2cc(OCCCS(=O)(=O)N(CCN3CCC(O)CC3)CC3CCCCC3)ccc2[nH]1` [Example 82], the IC50 in experiment [1] (Homo sapiens, Platelet) stood at 4.5 µM; in experiment [2], 3.8 µM. For the compound `O=c1ccc2cc(OCCCS(=O)(=O)N(CCN3CCC(O)CC3)CC3CCCCO3)ccc2[nH]1` (stereo not shown) [Example 84], the IC50 is 9.5 µM in experiment [1] (Homo sapiens, Platelet) and 9.1 µM in experiment [2]. Consider `O=S(=O)(CCCOc1ccc2[nH]c(=S)ccc2c1)N(CCN1CCC(O)CC1)c1ccccc1` [Example 87], for which, in experiment [1] (Homo sapiens, Platelet), the concentration for half-maximal inhibition (IC50) was found to be 4.7 µM. Take `O=c1ccc2cc(OCCCCS(=O)(=O)N(CCN3CCC(O)CC3)C3CCCCCCC3)ccc2[nH]1` [Example 88]: the IC50 in experiment [1] (Homo sapiens, Platelet) is 2.8 µM; in experiment [2], 1.4 µM. Consider `O=c1ccc2cc(OCCCCS(=O)(=O)N(CCN3CCC(O)CC3)Cc3cccs3)ccc2[nH]1` [Example 90], for which the IC50 amounted to 5.3 µM in experiment [1] (Homo sapiens, Platelet) and 5.4 µM in experiment [2]. Take `Cc1ccc(CN(CCN2CCC(O)CC2)S(=O)(=O)CCCCOc2ccc3[nH]c(=O)ccc3c2)cc1` [Example 94]: the IC50 was found to be 1.4 µM in experiment [1] (Homo sapiens, Platelet) and 2.3 µM in experiment [2]. Consider `O=c1ccc2cc(OCCCCS(=O)(=O)N(CCN3CCC(O)CC3)Cc3ccc(Cl)c(Cl)c3)ccc2[nH]1` [Example 95], for which the IC50 in experiment [1] (Homo sapiens, Platelet) amounted to 10 µM; in experiment [2], 7.1 µM.

With `COc1ccc(CN(CCN2CCC(O)CC2)S(=O)(=O)CCCCOc2ccc3[nH]c(=O)ccc3c2)cc1OC` [Example 96], the half-inhibitory concentration (IC50) worked out at 8.7 µM in experiment [1] (Homo sapiens, Platelet) and 6.5 µM in experiment [2]. As to `O=c1ccc2cc(OCCCS(=O)(=O)N(CCN3CCCCC3)CC3CCCCCCC3)ccc2[nH]1` [Example 97], the IC50 stood at 14 µM in experiment [1] (Homo sapiens, Platelet) and 18 µM in experiment [2]. In the same order, the values of `O=c1ccc2cc(OCCCS(=O)(=O)N(CCN3CCOCC3)CC3CCCCCCC3)ccc2[nH]1` [Example 98] are 9.1 µM and 12 µM. Consider `O=c1ccc2cc(OCCCS(=O)(=O)N(CCN3CCN(CCO)CC3)CC3CCCCCCC3)ccc2[nH]1` [Example 99], for which the IC50 in experiment [1] (Homo sapiens, Platelet) was determined as 2.9 µM; in experiment [2], 3.5 µM.

In the case of `CN(C)C1CCN(CCN(CC2CCCCCCC2)S(=O)(=O)CCCOc2ccc3[nH]c(=O)ccc3c2)CC1` [Example 100], the IC50 is 13 µM in experiment [1] (Homo sapiens, Platelet) and 6.5 µM in experiment [2].

As for `O=c1ccc2cc(OCCCS(=O)(=O)N(CCN3CCC4(CC3)OCCO4)CC3CCCCCCC3)ccc2[nH]1` [Example 101], the IC50 came out at 2.9 µM in experiment [1] (Homo sapiens, Platelet) and 3.2 µM in experiment [2]. With `O=c1ccc2cc(OCCCS(=O)(=O)N(CCN3C[C@H](O)[C@@H](O)C3)CC3CCCCCCC3)ccc2[nH]1` [Example 102], the IC50 in experiment [1] (Homo sapiens, Platelet) turned out to be 9.5 µM; in experiment [2], 15 µM.

Regarding `O=c1ccc2cc(OCCCS(=O)(=O)N(CCN3CCC[C@H]3CO)CC3CCCCCCC3)ccc2[nH]1` [Example 103], the IC50 in experiment [1] (Homo sapiens, Platelet) came out at 2.6 µM; in experiment [2], 3.2 µM. As to `O=c1ccc2cc(OCCCCS(=O)(=O)N(CCN3CCC[C@H]3CO)CC3CCCCC3)ccc2[nH]1` [Example 104], the IC50 in experiment [1] (Homo sapiens, Platelet) amounted to 3.5 µM; in experiment [2] it was 2.3 µM. `CN(C(=O)NCCCOc1ccc2[nH]c(=O)ccc2c1)C1CCCCC1` [Example 133]: the 50% inhibitory concentration (IC50) in experiment [1] (Homo sapiens, Platelet) stood at 2.9 µM. Turning to `CN(C(=S)CCCOc1ccc2[nH]c(=O)ccc2c1)C1CCCCC1` [Example 135], in experiment [1], the IC50 is 22 µM.

The values are drawn from patent US5506239A, “Carbostyril derivative and platelets aggregation inhibitory agent” (Otsuka Pharmaceutical Co., Ltd., priority 1991, dated 1996).
